Assay results: ChEMBL document CHEMBL3751680 (Bioorg Med Chem, 2016)
Calls of active or inactive are those of the source. The calls are words filed in the database; no cut-off is given here.

How the values were obtained:
[1] = Binding affinity to synthetic ceramic hydroxyapatite type 1 assessed as reduction in bound compound level at 50 uM after 1 hr by NMR spectroscopic analysis relative to control; parameters: scale not given: the % may be the effect or the level left
[2] = species on record: Canis lupus familiaris; test: Binding affinity to hound bone powder assessed as reduction in bound compound level at 50 uM after 1 hr by NMR spectroscopic analysis relative to control; parameters: scale not given: the % may be the effect or the level left
[3] = Binding affinity to synthetic ceramic hydroxyapatite type 1 assessed as reduction in bound compound level at 50 uM after 16 hrs by NMR spectroscopic analysis relative to control; parameters: scale not given: the % may be the effect or the level left
[4] = species on record: Canis lupus familiaris; test: Binding affinity to hound bone powder assessed as reduction in bound compound level at 50 uM after 16 hrs by NMR spectroscopic analysis relative to control; parameters: scale not given: the % may be the effect or the level left
[5] = target: Estrogen receptor beta (Homo sapiens, UniProt Q92731); test: Binding affinity to ERbeta (unknown origin)
Chain of Estrogen receptor beta (Q92731 whole entry): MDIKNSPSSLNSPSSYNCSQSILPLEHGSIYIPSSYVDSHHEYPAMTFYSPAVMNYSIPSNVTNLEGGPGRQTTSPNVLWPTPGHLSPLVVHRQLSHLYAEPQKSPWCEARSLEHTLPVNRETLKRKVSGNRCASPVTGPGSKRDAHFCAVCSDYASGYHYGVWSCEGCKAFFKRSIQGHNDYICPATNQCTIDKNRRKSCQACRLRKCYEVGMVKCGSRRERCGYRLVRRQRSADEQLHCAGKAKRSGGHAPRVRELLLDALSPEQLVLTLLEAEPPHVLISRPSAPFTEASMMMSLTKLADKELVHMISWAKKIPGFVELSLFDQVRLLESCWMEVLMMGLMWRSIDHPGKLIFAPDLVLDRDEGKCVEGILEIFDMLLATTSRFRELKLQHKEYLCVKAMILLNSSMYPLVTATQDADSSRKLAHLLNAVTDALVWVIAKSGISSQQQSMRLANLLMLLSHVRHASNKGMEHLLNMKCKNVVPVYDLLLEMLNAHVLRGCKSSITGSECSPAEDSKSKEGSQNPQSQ

[6] = species on record: Canis lupus familiaris; test: Binding affinity to hound bone powder assessed as reduction in bound compound level at 50 uM after 16 hrs by NMR spectroscopic analysis relative to alendronate; parameters: scale not given: the % may be the effect or the level left
[7] = Binding affinity to synthetic ceramic hydroxyapatite type 1 assessed as reduction in bound compound level at 50 uM after 1 hr by NMR spectroscopic analysis relative to alendronate; parameters: scale not given: the % may be the effect or the level left
[8] = Binding affinity to synthetic ceramic hydroxyapatite type 1 assessed as reduction in bound compound level at 50 uM after 16 hrs by NMR spectroscopic analysis relative to alendronate; parameters: scale not given: the % may be the effect or the level left
[9] = target: T1, Estrogen receptor (Homo sapiens, UniProt P03372); test: Binding affinity to ERalpha (unknown origin)
T1 sequence (P03372 whole entry): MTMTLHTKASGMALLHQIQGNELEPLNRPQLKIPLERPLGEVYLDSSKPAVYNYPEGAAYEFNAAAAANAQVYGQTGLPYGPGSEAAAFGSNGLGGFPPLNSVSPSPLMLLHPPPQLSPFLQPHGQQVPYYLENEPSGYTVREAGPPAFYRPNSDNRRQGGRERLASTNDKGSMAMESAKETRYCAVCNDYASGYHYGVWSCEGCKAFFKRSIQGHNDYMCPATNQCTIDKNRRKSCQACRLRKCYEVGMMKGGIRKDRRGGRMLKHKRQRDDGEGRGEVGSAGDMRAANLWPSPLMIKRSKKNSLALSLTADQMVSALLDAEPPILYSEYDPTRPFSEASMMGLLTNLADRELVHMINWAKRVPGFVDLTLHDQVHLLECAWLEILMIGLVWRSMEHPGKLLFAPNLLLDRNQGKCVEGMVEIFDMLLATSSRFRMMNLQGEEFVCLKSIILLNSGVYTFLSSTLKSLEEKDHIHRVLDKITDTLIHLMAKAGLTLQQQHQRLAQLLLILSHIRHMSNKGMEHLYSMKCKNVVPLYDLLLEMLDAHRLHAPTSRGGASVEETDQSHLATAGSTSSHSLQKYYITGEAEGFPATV

[10] = species on record: Canis lupus familiaris; test: Binding affinity to hound bone powder assessed as reduction in bound compound level at 50 uM after 1 hr by NMR spectroscopic analysis relative to alendronate; parameters: scale not given: the % may be the effect or the level left
[11] = species on record: Canis lupus familiaris; test: […] hound bone beams assessed as energy to fracture at 2 uM by 4 point bending analysis relative to control
[12] = species on record: Canis lupus familiaris; test: Binding affinity to hound bone powder at 50 uM after 1 to 8 hrs by 1H NMR spectroscopic analysis
[13] = target: Collagen alpha-1(I) chain (Canis lupus familiaris) (UniProt Q9XSJ7); test: Binding affinity to hound collagen 1a1 (unknown origin) at 50 uM after 1 8 hrs by 1H NMR spectroscopic analysis
Chain of Collagen alpha-1(I) chain (Canis lupus familiaris) (Q9XSJ7 whole entry): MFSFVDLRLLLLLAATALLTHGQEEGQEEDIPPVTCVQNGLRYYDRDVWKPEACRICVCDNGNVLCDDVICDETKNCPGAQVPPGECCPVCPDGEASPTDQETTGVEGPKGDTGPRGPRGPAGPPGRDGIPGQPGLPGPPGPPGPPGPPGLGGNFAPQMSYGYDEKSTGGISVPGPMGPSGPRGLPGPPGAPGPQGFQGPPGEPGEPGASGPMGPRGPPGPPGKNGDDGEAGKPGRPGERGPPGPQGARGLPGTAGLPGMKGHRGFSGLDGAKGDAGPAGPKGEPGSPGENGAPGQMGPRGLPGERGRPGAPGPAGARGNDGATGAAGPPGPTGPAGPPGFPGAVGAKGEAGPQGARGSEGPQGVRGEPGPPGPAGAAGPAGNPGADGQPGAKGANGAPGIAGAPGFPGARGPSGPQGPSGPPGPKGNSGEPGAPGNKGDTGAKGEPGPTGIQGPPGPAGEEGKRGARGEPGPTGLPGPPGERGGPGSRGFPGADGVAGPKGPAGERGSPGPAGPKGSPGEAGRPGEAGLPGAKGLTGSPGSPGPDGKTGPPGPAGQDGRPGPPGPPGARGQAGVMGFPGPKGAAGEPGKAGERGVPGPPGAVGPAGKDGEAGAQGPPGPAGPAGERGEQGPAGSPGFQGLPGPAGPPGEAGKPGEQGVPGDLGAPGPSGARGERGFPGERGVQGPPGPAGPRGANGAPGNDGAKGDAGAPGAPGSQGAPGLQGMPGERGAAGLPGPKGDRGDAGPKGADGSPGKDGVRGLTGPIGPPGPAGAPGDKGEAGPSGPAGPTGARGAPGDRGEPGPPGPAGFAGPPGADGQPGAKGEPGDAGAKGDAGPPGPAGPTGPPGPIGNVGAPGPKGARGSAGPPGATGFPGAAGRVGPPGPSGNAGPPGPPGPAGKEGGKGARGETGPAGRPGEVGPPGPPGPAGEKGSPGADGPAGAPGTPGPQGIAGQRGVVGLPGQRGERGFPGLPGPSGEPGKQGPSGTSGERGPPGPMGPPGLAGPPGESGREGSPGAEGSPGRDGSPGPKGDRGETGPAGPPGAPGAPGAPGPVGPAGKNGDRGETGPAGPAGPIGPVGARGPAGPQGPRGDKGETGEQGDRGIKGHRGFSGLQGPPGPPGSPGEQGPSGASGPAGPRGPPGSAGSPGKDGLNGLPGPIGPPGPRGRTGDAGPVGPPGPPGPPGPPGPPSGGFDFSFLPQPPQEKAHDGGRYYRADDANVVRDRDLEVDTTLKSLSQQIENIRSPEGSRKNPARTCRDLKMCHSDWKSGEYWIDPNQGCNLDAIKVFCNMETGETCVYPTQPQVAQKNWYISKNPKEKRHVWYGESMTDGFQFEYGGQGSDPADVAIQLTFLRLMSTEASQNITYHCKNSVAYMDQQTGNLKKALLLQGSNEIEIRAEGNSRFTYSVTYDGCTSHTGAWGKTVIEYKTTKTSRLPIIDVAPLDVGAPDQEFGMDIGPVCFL

[14] = species on record: Canis lupus familiaris; test: Binding affinity to hound bone powder assessed as change in vibration bands at 20 to 50 uM after 1 hr by FTIR analysis

Row | Activity [1] [%] | Activity [2] [%] | Activity [3] [%] | Activity [4] [%] | Ki [5] [nM] | Activity [6] [%] | Activity [7] [%] | Activity [8] [%] | Ki [9] [µM] | Activity [10] [%] | Activity [11] [%] | Activity [12] | Activity [13] | Activity [14] | Structure (SMILES)
1 | 100 | 41.1 | 99.7 | 95.6 |  |  |  |  |  |  |  |  |  |  | NCCCC(O)(P(=O)(O)O)P(=O)(O)O
2 | -422 | -132 | -237 | 89 | > 10000 | 93.1 | -422 | -238 | > 10 | -132 |  |  |  |  | O=C(c1ccc(OCCN2CCCCC2)cc1)c1c(-c2ccccc2)sc2ccccc12
3 | 13.3 | 26.4 | 15.1 | 34.1 |  | 35.6 | 13.3 | 15.1 |  | 26.4 | -36 | Active | Active |  | O=C(c1ccc(O)cc1)c1c(-c2ccc(O)cc2)sc2cc(O)ccc12
4 | -232 | 54.2 | -206 | 99 |  | 104 | -232 | -207 |  | 54.2 | 16 | Active | Active | Active | O=C(c1ccc(OCCN2CCCCC2)cc1)c1c(-c2ccc(O)cc2)sc2cc(O)ccc12
5 | 57.1 | 5.3 | 73 | 73.9 |  | 77.4 | 57.1 | 73.2 |  | 5.3 |  |  |  |  | C[C@]12CC[C@@H]3c4ccc(O)cc4CC[C@H]3[C@@H]1CC[C@@H]2O
6 | 22.3 | 42.8 | 11.7 | 46.4 | 2.3 | 48.6 | 22.3 | 11.7 |  | 42.8 | -75 |  |  |  | Oc1ccc(-c2cc3ccc(O)cc3s2)cc1 [RALOXIFENE CORE]
7 | -57.9 | 21 | -286 | 73.9 |  | 77.4 | -57.9 | -287 |  | 21 | 25 | Active | Active |  | COc1ccc2c(C(=O)c3ccc(OCCN4CCCCC4)cc3)c(-c3ccc(O)cc3)sc2c1
8 | 3.9 | 0.3 | 4.1 | -0.5 |  | -0.5 | 3.9 | 4.1 |  | 0.3 |  |  |  |  | COc1ccc(Nc2nc(NCc3ccco3)nc(N/N=C(\C)c3ccc(NC(C)=O)cc3)n2)cc1
